Reference: EP1336409B1 (priority 1995, dated 1997)

System: spinal pia-arachnoid membranes
Parameters: species or system Macaque nemestrina monkeys
Settings: read-out: IC50, displacement of [125I]SNX-111 binding

Q: With [Nle^12] SNX-111 [SNX-194] as the substance, how does the IC50 read?
A: 41 µM
